Assay results: ChEMBL document CHEMBL1127270, “Enantioselective synthesis of PD144723: a potent stereospecific anticonvulsant” (Bioorg Med Chem Lett, 1994)

Assays:
Rattus norvegicus [1] = species on record: Rattus norvegicus; test: In vitro percent inhibition of [3H]gabapentin binding at log molar concentration of -5.5
Rattus norvegicus [2] = species on record: Rattus norvegicus; test: In vitro percent inhibition of [3H]gabapentin binding at log molar concentration of -7.5
Rattus norvegicus [3] = species on record: Rattus norvegicus; test: In vitro percent inhibition of [3H]gabapentin binding at log molar concentration of -7
Rattus norvegicus [4] = species on record: Rattus norvegicus; test: In vitro percent inhibition of [3H]gabapentin binding at log molar concentration of -8
Rattus norvegicus [5] = species on record: Rattus norvegicus; test: In vitro percent inhibition of [3H]gabapentin binding at log molar concentration of -5
Rattus norvegicus [6] = species on record: Rattus norvegicus; test: In vitro percent inhibition of [3H]gabapentin binding at log molar concentration of -4
Rattus norvegicus [7] = species on record: Rattus norvegicus; test: In vitro percent inhibition of [3H]gabapentin binding at log molar concentration of -6
Rattus norvegicus [8] = species on record: Rattus norvegicus; test: In vitro percent inhibition of [3H]gabapentin binding at log molar concentration of -8.5
Rattus norvegicus [9] = species on record: Rattus norvegicus; test: In vitro percent inhibition of [3H]gabapentin binding at log molar concentration of -6.5
Rattus norvegicus [10] = species on record: Rattus norvegicus; test: In vitro percent inhibition of [3H]gabapentin binding at log molar concentration of -4.5
[11] = In vitro inhibition of [3H]-gabapentin binding to partially purified rat neocortex synaptic plasma membranes; format: cell membranes, Membrane
Mus musculus [12] = species on record: Mus musculus; test: Effective dose for anticonvulsant activity (blocking maximal electroshock seizures) in male CF-1 strain mice was measured.; format: functional
Mus musculus [13] = test: Percent of mice protected in blocking maximal electroshock seizures test at a dose of 500 mg/kg, iv,; format: functional
Mus musculus [14] = test: Percent of mice protected in blocking maximal electroshock seizures test at a dose of 100 mg/kg, iv,; format: functional
Mus musculus [15] = test: Percent of mice protected in blocking maximal electroshock seizures test at a dose of 450 mg/kg, iv,; format: functional
Mus musculus [16] = test: Percent of mice protected in blocking maximal electroshock seizures test at a dose of 750 mg/kg, iv,; format: functional
Mus musculus [17] = test: Percent of mice protected in blocking maximal electroshock seizures test at a dose of 150 mg/kg, iv,; format: functional
Mus musculus [18] = test: Percent of mice protected in blocking maximal electroshock seizures test at a dose of 75 mg/kg, iv,; format: functional
Mus musculus [19] = test: Percent of mice protected in blocking maximal electroshock seizures test at a dose of 50 mg/kg, iv,; format: functional

Structure (SMILES) | inhibition (Rattus norvegicus [1]) [%] | inhibition (Rattus norvegicus [2]) [%] | inhibition (Rattus norvegicus [3]) [%] | inhibition (Rattus norvegicus [4]) [%] | inhibition (Rattus norvegicus [5]) [%] | inhibition (Rattus norvegicus [6]) [%] | inhibition (Rattus norvegicus [7]) [%] | inhibition (Rattus norvegicus [8]) [%] | inhibition (Rattus norvegicus [9]) [%] | inhibition (Rattus norvegicus [10]) [%] | IC50 [11] [µM] | ED50 (Mus musculus [12]) [mg/kg] | Protection (Mus musculus [13]) [%] | Protection (Mus musculus [14]) [%] | Protected (Mus musculus [15]) [%] | Protected (Mus musculus [16]) [%] | Protected (Mus musculus [17]) [%] | Protected (Mus musculus [18]) [%] | Protected (Mus musculus [19]) [%]
CC(C)CC(CN)CC(=O)O (racemic) | 92 | 30 | 50 | 12 | 94 | 100 | 90 | 10 | 74 | 98 | 0.083 | – | – | – | – | – | – | – | –
CC(C)C[C@H](CN)CC(=O)O [PREGABALIN] | 94 | 50 | 75 | 25 | 98 | – | 90 | – | 85 | 100 | 0.037 | 20 | – | – | – | – | – | – | –
CC(C)C[C@@H](CN)CC(=O)O | 80 | 10 | 8 | 0 | 80 | – | 60 | – | 38 | 90 | 0.62 | > 300 | ~1 | ~94 | – | – | – | – | –
NCC1(CC(=O)O)CCCCC1 [GABAPENTIN] | – | – | – | – | – | – | – | – | – | – | 0.08 | 87 | – | – | ~74 | ~99 | ~75 | ~70 | ~1
